# The source made the active and inactive calls. No cut-off for these calls is given here.
# Legend:
# Aminopeptidase N [1] = molecular target: T1, Aminopeptidase N (Sus scrofa, UniProt P15145); assay: Inhibition of APN in porcine kidney microsome assessed as inhibition of L-Leu-p-nitroanilide substrate hydrolysis incubated for 5 mins before substrate addition by UV-Vis spectrophotometric analysis; type: microsomes
# T1 sequence (P15145 whole entry): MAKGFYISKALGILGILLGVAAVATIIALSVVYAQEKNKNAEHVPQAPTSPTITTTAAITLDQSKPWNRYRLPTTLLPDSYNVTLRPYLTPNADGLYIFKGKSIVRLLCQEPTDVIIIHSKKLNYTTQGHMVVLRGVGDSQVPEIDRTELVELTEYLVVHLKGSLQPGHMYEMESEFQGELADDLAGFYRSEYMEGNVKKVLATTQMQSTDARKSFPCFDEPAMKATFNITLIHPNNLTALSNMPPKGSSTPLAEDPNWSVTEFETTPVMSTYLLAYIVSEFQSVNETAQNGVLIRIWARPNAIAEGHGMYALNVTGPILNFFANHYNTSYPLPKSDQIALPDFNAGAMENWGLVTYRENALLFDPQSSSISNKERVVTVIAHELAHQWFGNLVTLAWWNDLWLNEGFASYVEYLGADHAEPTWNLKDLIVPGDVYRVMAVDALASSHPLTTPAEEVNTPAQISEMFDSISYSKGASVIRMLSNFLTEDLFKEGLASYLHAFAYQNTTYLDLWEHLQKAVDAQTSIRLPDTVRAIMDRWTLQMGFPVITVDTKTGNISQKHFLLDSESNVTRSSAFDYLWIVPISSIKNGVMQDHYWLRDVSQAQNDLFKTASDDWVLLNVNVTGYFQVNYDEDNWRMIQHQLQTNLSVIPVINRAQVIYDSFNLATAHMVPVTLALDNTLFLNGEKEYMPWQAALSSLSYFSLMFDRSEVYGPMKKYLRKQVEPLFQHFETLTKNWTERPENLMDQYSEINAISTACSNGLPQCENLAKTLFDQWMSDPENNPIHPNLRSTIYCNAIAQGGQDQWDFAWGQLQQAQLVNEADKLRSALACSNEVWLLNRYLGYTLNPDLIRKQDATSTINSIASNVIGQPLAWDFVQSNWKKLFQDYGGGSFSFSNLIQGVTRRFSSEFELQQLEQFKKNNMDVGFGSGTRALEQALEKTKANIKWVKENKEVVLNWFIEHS
# B16-BL6 [2] = assay: Antimetastatic activity against mouse B16-BL6 cells xenografted in C57BL/6 mouse assessed as decrease in number of pulmonary metastatic colonies at 100 mg/kg/day, ip administered for 13 days measured on day 14; type: functional, organism-based
# [3] = Cytotoxicity against mouse B16-BL6 cells assessed as cell growth inhibition after 24 hrs by MTT assay; type: cell-based
# B16-BL6 [4] = assay: Antiangiogenic activity against mouse B16-BL6 cells xenografted in C57BL/6 mouse assessed as decrease in number of vessels oriented towards the tumor mass at 100 mg/kg/day, ip administered for 4 days measured on day 5 by dissecting microscopic analysis; type: functional, organism-based
# Aminopeptidase N [5] = molecular target: T2, Aminopeptidase N (Mus musculus, UniProt P97449); assay: Inhibition of APN in mouse B16-BL6 cell surface assessed as inhibition of L-Leu-p-nitroanilide substrate hydrolysis incubated for 5 mins before substrate addition by UV-Vis spectrophotometric analysis
# T2 sequence (P97449 whole entry): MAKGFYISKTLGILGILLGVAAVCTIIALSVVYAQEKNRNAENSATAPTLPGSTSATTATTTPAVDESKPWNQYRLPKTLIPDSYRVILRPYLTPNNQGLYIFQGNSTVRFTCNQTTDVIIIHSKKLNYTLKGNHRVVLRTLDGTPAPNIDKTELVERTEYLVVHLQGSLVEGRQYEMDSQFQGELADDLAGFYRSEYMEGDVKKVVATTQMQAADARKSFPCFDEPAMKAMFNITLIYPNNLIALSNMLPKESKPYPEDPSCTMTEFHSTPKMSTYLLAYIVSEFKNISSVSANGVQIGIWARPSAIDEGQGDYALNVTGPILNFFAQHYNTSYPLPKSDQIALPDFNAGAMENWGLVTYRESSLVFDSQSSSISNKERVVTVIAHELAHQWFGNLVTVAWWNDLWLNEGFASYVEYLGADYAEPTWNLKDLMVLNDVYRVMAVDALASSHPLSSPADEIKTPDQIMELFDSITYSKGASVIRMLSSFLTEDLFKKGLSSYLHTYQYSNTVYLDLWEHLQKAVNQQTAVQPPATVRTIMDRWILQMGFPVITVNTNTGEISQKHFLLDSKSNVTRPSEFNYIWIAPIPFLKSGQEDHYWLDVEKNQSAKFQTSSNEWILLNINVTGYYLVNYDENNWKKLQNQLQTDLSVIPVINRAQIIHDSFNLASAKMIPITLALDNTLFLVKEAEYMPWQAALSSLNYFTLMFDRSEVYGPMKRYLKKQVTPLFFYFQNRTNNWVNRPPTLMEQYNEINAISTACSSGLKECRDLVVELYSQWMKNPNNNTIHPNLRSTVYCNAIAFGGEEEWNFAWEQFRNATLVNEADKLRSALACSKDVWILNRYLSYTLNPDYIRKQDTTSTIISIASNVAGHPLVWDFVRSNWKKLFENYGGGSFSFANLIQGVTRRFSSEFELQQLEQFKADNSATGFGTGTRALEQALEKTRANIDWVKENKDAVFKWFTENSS
# HUVEC = assay: Antiangiogenesis activity against HUVEC assessed as decrease in capillary tubular structure formation at 25 ug/ml after 8 hrs by microscopic analysis; type: functional, cell-based; details: Homo sapiens
# ES2 [6] = assay: Inhibition of human ES2 cell invasion after 8 hrs by Matrigel invasion assay; type: functional, cell-based
# ES2 [7] = assay: Inhibition of human ES2 cell migration at 150 uM by crystal violet staining based microscopic analysis; type: functional
# [8] = Cytotoxicity against human ES2 cells assessed as cell growth inhibition rate at 50 ug/ml after 24 hrs by MTT assay; type: cell-based; details: read-out: GI
# [9] = molecular target: 72 kDa type IV collagenase (Homo sapiens, UniProt P08253); assay: Inhibition of recombinant MMP-2 using succinylated gelatin as substrate incubated for 10 mins before addition of substrate measured after 60 mins by UV-Vis spectrophotometric analysis
# [10] = Cytotoxicity against human ES2 cells assessed as cell growth inhibition rate at 5 ug/ml after 24 hrs by MTT assay; type: cell-based; details: read-out: GI
# Aminopeptidase N [11] = molecular target: Aminopeptidase N (Homo sapiens, UniProt P15144); assay: Inhibition of APN in human ES2 cell surface assessed as inhibition of L-Leu-p-nitroanilide substrate hydrolysis incubated for 5 mins before substrate addition by UV-Vis spectrophotometric analysis
# Chain of Aminopeptidase N (Homo sapiens, UniProt P15144) (P15144 whole entry): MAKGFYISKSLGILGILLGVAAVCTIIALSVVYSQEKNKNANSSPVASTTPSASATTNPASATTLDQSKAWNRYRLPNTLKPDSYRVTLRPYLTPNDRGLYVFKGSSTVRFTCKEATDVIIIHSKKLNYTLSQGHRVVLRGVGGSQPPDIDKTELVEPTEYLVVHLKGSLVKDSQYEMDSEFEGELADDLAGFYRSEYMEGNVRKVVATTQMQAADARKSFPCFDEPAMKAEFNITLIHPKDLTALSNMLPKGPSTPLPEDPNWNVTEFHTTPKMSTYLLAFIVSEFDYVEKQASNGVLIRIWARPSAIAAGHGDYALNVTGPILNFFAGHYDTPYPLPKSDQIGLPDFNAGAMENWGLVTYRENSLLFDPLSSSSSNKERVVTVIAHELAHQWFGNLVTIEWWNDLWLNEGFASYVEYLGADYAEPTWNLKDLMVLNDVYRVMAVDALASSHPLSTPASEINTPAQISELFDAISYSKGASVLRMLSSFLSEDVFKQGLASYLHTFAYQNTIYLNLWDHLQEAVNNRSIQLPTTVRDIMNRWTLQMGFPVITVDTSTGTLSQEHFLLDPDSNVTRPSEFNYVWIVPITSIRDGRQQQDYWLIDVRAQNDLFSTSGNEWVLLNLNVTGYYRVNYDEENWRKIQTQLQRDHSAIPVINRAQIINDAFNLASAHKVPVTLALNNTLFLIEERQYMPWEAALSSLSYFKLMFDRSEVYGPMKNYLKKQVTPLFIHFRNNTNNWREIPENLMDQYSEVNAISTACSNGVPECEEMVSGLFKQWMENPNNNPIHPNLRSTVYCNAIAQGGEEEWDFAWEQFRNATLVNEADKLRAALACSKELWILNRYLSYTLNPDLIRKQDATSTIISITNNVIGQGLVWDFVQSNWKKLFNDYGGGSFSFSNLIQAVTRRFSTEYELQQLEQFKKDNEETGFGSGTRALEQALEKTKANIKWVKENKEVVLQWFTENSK
# Chain of 72 kDa type IV collagenase (P08253 whole entry): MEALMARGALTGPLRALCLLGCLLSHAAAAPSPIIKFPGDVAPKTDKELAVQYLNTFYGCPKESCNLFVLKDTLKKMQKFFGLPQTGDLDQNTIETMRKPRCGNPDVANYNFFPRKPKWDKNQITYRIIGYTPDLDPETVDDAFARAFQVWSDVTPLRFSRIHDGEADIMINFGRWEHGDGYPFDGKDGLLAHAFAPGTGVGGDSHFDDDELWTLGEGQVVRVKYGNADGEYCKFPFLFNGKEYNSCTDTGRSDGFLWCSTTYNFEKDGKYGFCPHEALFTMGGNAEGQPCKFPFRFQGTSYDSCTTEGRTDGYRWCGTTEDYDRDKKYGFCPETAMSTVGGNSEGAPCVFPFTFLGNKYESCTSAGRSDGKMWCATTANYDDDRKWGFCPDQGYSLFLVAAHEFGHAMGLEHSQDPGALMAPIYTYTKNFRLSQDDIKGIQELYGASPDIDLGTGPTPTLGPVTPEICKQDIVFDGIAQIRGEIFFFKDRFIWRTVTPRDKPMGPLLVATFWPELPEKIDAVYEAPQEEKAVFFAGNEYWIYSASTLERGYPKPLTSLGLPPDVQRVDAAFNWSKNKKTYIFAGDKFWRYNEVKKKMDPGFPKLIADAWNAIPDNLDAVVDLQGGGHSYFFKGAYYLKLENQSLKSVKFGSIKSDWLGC
IC50 (Aminopeptidase N [1]),IC50 [9],IC50 (Aminopeptidase N [11]),SMILES,"inhibition at 24 h, 50 ug/ml [8]","inhibition at 24 h, 5 ug/ml [10]",other results
> 10 µM,–,–,CC(C)C[C@H](NC(=O)Cc1ccccc1)C(=O)NO,–,–,–
2.2 µM,–,–,O=C(NCCCc1ccccc1)N[C@H](C(=O)NO)c1ccccc1,–,–,–
7 µM,–,–,CSCC[C@H](NC(=O)NCCCc1ccccc1)C(=O)NO,–,–,–
3.4 µM,–,–,CC(C)C[C@H](NC(=O)NCCCc1ccccc1)C(=O)NO,–,–,–
1.9 µM,–,–,O=C(NCCc1ccccc1)N[C@H](C(=O)NO)c1ccccc1,–,–,–
0.57 µM,> 1000 µM,1.1 µM,COc1ccccc1CNC(=O)N[C@@H](CC(C)C)C(=O)NO,3.29%,< 1%,–
> 10 µM,–,–,CC(C)C[C@H](NC(=O)OCCCc1ccccc1)C(=O)NO,–,–,–
2.8 µM,–,–,O=C(NCCCCc1ccccc1)N[C@@H](Cc1ccccc1)C(=O)NO,–,–,–
2.7 µM,–,–,CC(C)C[C@H](NC(=O)Nc1ccccc1)C(=O)NO,–,–,–
2.3 µM,–,–,CC(C)C[C@H](NC(=O)NCCCCc1ccccc1)C(=O)NO,–,–,–
5.5 µM,–,–,O=C(NCCCCc1ccccc1)N[C@H](C(=O)NO)c1ccccc1,–,–,–
0.05 µM,545 µM,0.42 µM,CC(C)C[C@H](NC(=O)NCc1cccc2ccccc12)C(=O)NO,6.67%,< 1%,Activity (B16-BL6 [2]): Active; GI50 at 24 h [3]: > 500 µM; Activity (B16-BL6 [4]): Active; IC50 (Aminopeptidase N [5]): 1.82 µM; Activity (HUVEC): Active; inhibition (ES2 [6]): Dose-dependent effect; inhibition (ES2 [7]): Active
> 10 µM,–,–,CC[C@H](C)[C@H](NC(=O)NCCCCc1ccccc1)C(=O)NO,–,–,–

# Continued, molecule first:
SMILES,IC50 (Aminopeptidase N [1]),IC50 [9],IC50 (Aminopeptidase N [11]),"inhibition at 24 h, 50 ug/ml [8]","inhibition at 24 h, 5 ug/ml [10]",other results
COc1ccc(CNC(=O)N[C@H](C(=O)NO)c2ccccc2)cc1,1.03 µM,–,–,–,–,–
O=C(NCc1ccccc1)N[C@H](C(=O)NO)c1ccccc1,0.98 µM,–,–,–,–,–
CC(C)C[C@H](NC(=O)Nc1cccc2ccccc12)C(=O)NO,0.099 µM,> 1000 µM,0.48 µM,3.63%,< 1%,Activity (B16-BL6 [2]): Active; GI50 at 24 h [3]: > 500 µM; Activity (B16-BL6 [4]): Active; IC50 (Aminopeptidase N [5]): 2.26 µM; Activity (HUVEC): Active; inhibition (ES2 [6]): Dose-dependent effect; inhibition (ES2 [7]): Active
O=C(Nc1ccccc1)N[C@H](C(=O)NO)c1ccccc1,5.9 µM,–,–,–,–,–
COc1ccc(NC(=O)N[C@@H](CC(C)C)C(=O)NO)cc1,0.57 µM,> 1000 µM,6.4 µM,6.85%,< 1%,–
Cc1ccc(NC(=O)N[C@@H](CC(C)C)C(=O)NO)cc1,0.33 µM,573 µM,0.94 µM,1.78%,< 1%,inhibition (ES2 [6]): Dose-dependent effect; inhibition (ES2 [7]): Active
COc1ccc(CNC(=O)N[C@@H](CC(C)C)C(=O)NO)cc1,0.83 µM,> 1000 µM,6.9 µM,< 1%,< 1%,–
CC(C)C[C@H](NC(=O)NCc1cccs1)C(=O)NO,0.66 µM,–,–,–,–,–
CC(C)C[C@H](NC(=O)Nc1ccc(-c2ccccc2)cc1)C(=O)NO,2.1 µM,–,–,–,–,–
O=C(NCc1ccc(F)cc1)N[C@H](C(=O)NO)c1ccccc1,5 µM,–,–,–,–,–
CC(C)C[C@H](NC(=O)NCc1ccco1)C(=O)NO,2.3 µM,–,–,–,–,–
CC(C)C[C@H](NC(=O)NCc1ccc(F)cc1)C(=O)NO,0.73 µM,> 1000 µM,0.91 µM,11.9%,< 1%,–
Cc1ccc(CNC(=O)N[C@H](C(=O)NO)c2ccccc2)cc1,1.64 µM,–,–,–,–,–
CC(C)C[C@H](NC(=O)Nc1ccc(F)cc1)C(=O)NO,2.5 µM,–,–,–,–,–
COc1cccc(CNC(=O)N[C@@H](CC(C)C)C(=O)NO)c1,0.29 µM,> 1000 µM,0.79 µM,< 1%,< 1%,Activity (B16-BL6 [2]): Active; GI50 at 24 h [3]: > 500 µM; Activity (B16-BL6 [4]): Active; IC50 (Aminopeptidase N [5]): 5.61 µM; Activity (HUVEC): Active; inhibition (ES2 [6]): Dose-dependent effect; inhibition (ES2 [7]): Active
Cc1ccc(CNC(=O)N[C@@H](CC(C)C)C(=O)NO)cc1,0.41 µM,> 1000 µM,1.5 µM,1.83%,< 1%,–
O=C(Nc1ccc(F)cc1)N[C@H](C(=O)NO)c1ccccc1,9.9 µM,–,–,–,–,–
CC(C)C[C@H](NC(=O)NCc1cccc(F)c1)C(=O)NO,0.69 µM,> 1000 µM,3 µM,2.81%,< 1%,–
